Values of other authors as cited in patent US20080097086A1, “Process for preparing anti-tumor oligosaccharide material from chitosan” (TENWELL BIOTECHNOLOGY LIMITED, priority 2006, published 2008).
Values joined by “and” are separate entries in the source; they are usually repeats but may differ in a detail not shown here. Equal values may be shown once.

What was measured:
[1] = tested on: S180; conditions: intravenous, S180-implanted ddY mice
[2] = tested on: fibrosarcoma (Meth-A) solid tumor cells

chitohexaose
inhibitory rate on tumor growth ([1]; 3 times at 100 mg/Kg/d, after seven days, 100 mg/kg/day): 85% and 93% | control of tumor growth ([1]; increased to 5 times): complete control of tumor growth | dose displaying the strongest effect ([2]; Meth-A solid tumor): 10 mg/kg | inhibition of Meth-A solid tumor ([2]; in vivo): significant inhibition
